Structures can show the parent of a compound that is named as a salt. Where two headings read alike, the source gives them in different places.
Key:
[1] = tested on: calcium ion concentration in the blood; test: Measurement test for concentration of parathyroid hormone and calcium ion in rat blood; assay type: in vivo; settings: read-out: reduction of calcium concentration in the blood
Procedure: Three male SD rats (manufactured by Japan SLC, Inc.) were orally administered with the test compound, and effects on the concentration of parathyroid hormone (PTH) in the blood and concentration of the calcium ion in the blood were studied.
The test compound was administered by dissolving or suspending it in a 0.5% methyl cellulose 400 (MC) solution or 0.5% MC solution containing 10% of ethanol. (In addition, Compound A used in Test Example 1 was administered as a MC suspension by dosage of 30 mg/kg, and was studied as a comparative example.) Blood was collected from the jugular vein under anesthesia with halothane or isoflurane, before administration of the test compound, and 2, 4, 6 or 8 and 24 hours after administration. Calcium ion concentration in the blood was measured using cartridge EG7+(manufactured by Fuso Chemical Co., Ltd.) and i-STAT 300F (manufactured by Fuso Chemical Co., Ltd.). In addition, plasma intact PTH concentration was measured using Rat intact PTH ELISA kit (manufactured by Immutopics).
The transition of calcium ion concentration in the blood over time from before administration to 24 hours after administration of each of the test compounds was plotted, and the decrease in calcium ion concentration in the blood from the value before administration was calculated as an area value.

human CaSR = target: T1, human CaSR (Homo sapiens, UniProt P41180); test: Human CaSR activity measurement test (intracellular calcium in TT cells); assay type: cell-based; settings: [EC50 of test compound]/[EC50 of Compound A], intracellular calcium fluorescence
T1 construct: TT cells are cell lines that express human CaSR; endogenous in cells; host or cells: TT cells (human medullary thyroid carcinoma cell line)
T1 sequence (P41180 20-1078): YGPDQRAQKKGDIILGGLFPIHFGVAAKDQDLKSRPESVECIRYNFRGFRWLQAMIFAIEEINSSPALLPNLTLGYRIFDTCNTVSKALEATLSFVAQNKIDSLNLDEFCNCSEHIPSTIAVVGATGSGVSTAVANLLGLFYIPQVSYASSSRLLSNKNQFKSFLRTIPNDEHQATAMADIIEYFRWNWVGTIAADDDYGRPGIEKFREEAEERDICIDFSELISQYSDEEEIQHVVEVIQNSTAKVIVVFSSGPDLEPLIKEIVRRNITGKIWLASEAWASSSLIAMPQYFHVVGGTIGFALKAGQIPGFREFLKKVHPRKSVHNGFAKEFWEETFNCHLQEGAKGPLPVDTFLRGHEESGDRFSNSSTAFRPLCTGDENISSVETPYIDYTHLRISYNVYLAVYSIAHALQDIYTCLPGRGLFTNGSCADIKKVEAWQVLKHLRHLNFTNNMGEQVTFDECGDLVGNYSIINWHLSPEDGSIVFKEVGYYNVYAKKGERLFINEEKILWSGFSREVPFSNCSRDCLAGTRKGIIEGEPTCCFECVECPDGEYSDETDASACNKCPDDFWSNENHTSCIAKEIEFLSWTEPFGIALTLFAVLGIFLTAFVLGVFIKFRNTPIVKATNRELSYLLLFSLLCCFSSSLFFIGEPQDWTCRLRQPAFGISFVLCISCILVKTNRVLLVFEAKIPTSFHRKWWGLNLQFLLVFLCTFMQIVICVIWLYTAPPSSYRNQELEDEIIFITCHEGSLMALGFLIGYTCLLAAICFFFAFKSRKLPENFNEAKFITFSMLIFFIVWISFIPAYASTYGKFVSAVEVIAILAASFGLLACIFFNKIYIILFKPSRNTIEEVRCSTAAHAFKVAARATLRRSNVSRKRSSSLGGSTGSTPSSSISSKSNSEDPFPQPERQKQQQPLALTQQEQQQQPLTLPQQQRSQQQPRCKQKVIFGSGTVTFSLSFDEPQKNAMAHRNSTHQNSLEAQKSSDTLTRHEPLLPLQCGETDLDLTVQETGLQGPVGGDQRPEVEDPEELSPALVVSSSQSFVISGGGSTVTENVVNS
Procedure: It is reported that human medullary thyroid carcinoma cell lines TT cells are cell lines that express human CaSR, and when CaSR is activated by extracellular calcium ions or the like, intracellular calcium ion concentration increases (Endocrinology 137: 3842-3848, 1996). Accordingly, an activating action of the test compounds with respect to human CaSR was evaluated by using the change in intracellular calcium concentration of TT cells as an indicator. TT cells were inoculated onto a black well/clear bottom 96 well plate (poly-D-lysine coat: manufactured by BD biosciences), and were cultured for approximately 24 hours in a F-12 Nutrient Mixture (Kaighn's modification) culture media containing 10% calf serum and 0.5% antibiotic antimycotic. […] Then, the plate was allowed to stand for 1 hour at 37° C. Subsequently, the above-mentioned plate was placed onto FlexStation (manufactured by Molecular Device) or FlexStation 3 (manufactured by Molecular Device), and fluorescence intensity before and after treatment with the test compound dissolved in a buffer for measurement (126 mM NaCl, 4 mM KCl, 1 mM MgCl2, 20 mM HEPES (pH 7.4), 5.6 mM glucose, 2 mM CaCl2) was measured. […] Nagano, Pharmacol. […] WO 1996/12697) as a comparative compound, by conducting a similar procedure. From the following equation, the human CaSR activity of each of the test compounds was calculated as the relative activity with respect to Compound A. Relative activity with respect to Compound A=[EC50 of test compound]/[EC50 of Compound A]

[2] = male SD rats, oral, 10 mg/kg, 4 hours after administration
[3] = male SD rats, oral, 4 hours after administration

SMILES	inhibition in vivo at 10 mg/kg [1, 2] [%]	Relative activity with respect to Compound A (human CaSR)	inhibition in vivo at 0.3 mg/kg [1, 3] [%]	inhibition in vivo at 10 mg/kg ([1]; po, 4 h) [%]
C[C@@H](N[C@H]1CC[C@@H](c2ccc(OC(C)(C)C(=O)O)cc2)C1)c1cccc2ccccc12 [Example 11, 2-Methyl-2-{4-[(1R,3S)-3-{[(1R)-1-(naphthalen-1-yl)ethyl]amino}cyclopentyl]phenoxy}propanoic acid hydrochloride]	≥ 30	0.60		
C[C@@H](N[C@H]1CC[C@@H](c2ccc(OC(C)(C)C(=O)O)c(F)c2)C1)c1cccc2ccccc12 [Example 15, 2-{2-Fluoro-4-[(1R,3S)-3-{[(1R)-1-(naphthalen-1-yl)ethyl]amino}cyclopentyl]phenoxy}-2-methylpropanoic acid hydrochloride]	≥ 30	0.38		
C[C@@H](N[C@H]1CC[C@@H](c2ccc(OCC(=O)O)cc2)C1)c1ccc(F)c2ccccc12 [Example 17, {4-[(1R,3S)-3-{[(1R)-1-(4-Fluoronaphthalen-1-yl)ethyl]amino}cyclopentyl]phenoxy}acetic acid]	≥ 30	0.30	≥ 20	
C[C@@H](NC1CC[C@@H](c2ccc(OCC(=O)O)cc2)C1)c1cccc2cc(F)ccc12 (stereo partly drawn) [Example 21, {4-[(1R)-3-{[(1R)-1-(6-Fluoronaphthalen-1-yl)ethyl]amino}cyclopentyl]phenoxy}acetic acid]	≥ 30	0.38		
C[C@@H](N[C@H]1CC[C@@H](c2cccc(CC(=O)O)c2)C1)c1ccc(F)c2ccccc12 [Example 24, {3-[(1R,3S)-3-{[(1R)-1-(4-Fluoronaphthalen-1-yl)ethyl]amino}cyclopentyl]phenyl}acetic acid hydrochloride]	≥ 30	0.30	≥ 20	
C[C@@H](N[C@H]1CC[C@@H](c2ccc(CC(=O)O)cc2)C1)c1ccc(F)c2ccccc12 [Example 25, {4-[(1R,3S)-3-{[(1R)-1-(4-Fluoronaphthalen-1-yl)ethyl]amino}cyclopentyl]phenyl}acetic acid hydrochloride]	≥ 30	0.34	≥ 20	
C[C@@H](N[C@H]1CC[C@@H](c2ccc(CCC(=O)O)cc2)C1)c1ccc(F)c2ccccc12 [Example 27, 3-{4-[(1R,3S)-3-{[(1R)-1-(4-Fluoronaphthalen-1-yl)ethyl]amino}cyclopentyl]phenyl}propanoic acid hydrochloride]		0.59	≥ 20	
C[C@@H](N[C@H]1CC[C@H](c2ccc(OCC(=O)O)cc2)C1)c1ccc(F)c2ccccc12 [Example 28, {4-[(1S,3S)-3-{[(1R)-1-(4-Fluoronaphthalen-1-yl)ethyl]amino}cyclopentyl]phenoxy}acetic acid]		0.17	≥ 20	
C[C@@H](N[C@H]1CC[C@H](c2ccc(CCC(=O)O)cc2)C1)c1ccc(F)c2ccccc12 [Example 30, 3-{4-[(1S,3S)-3-{[(1R)-1-(4-Fluoronaphthalen-1-yl)ethyl]amino}cyclopentyl]phenyl}propanoic acid hydrochloride]		0.31	≥ 20	
C[C@@H](N[C@H]1CC[C@@H](c2ccc(OC(C)(C)C(=O)O)cc2)C1)c1ccc(F)c2ccccc12 [Example 31, 2-{4-[(1R,3S)-3-{[(1R)-1-(4-Fluoronaphthalen-1-yl)ethyl]amino}cyclopentyl]phenoxy}-2-methylpropanoic acid hydrochloride]	≥ 30	0.36	≥ 20	
C[C@@H](N[C@H]1CC[C@@H](c2ccc(NCC(=O)O)cc2)C1)c1cccc2ccccc12 [Example 33, N-{4-[(1R,3S)-3-{[(1R)-1-(Naphthalen-1-yl)ethyl]amino}cyclopentyl]phenyl}glycine 0.4 hydrochloride]		0.23		≥ 30
C[C@@H](N[C@H]1CC[C@@H](c2ccc(NCCC(=O)O)cc2)C1)c1cccc2ccccc12 [Example 34, N-{4-[(1R,3S)-3-{[(1R)-1-(Naphthalen-1-yl)ethyl]amino}cyclopentyl]phenyl}-β-alanine 0.5 hydrochloride]		0.26		≥ 30
C[C@@H](N[C@H]1CC[C@@H](c2ccc(SCC(=O)O)cc2)C1)c1cccc2ccccc12 [Example 36, ({4-[(1R,3S)-3-{[(1R)-1-(Naphthalen-1-yl)ethyl]amino}cyclopentyl]phenyl}thio)acetic acid hydrochloride]	≥ 30	0.15		

Source: patent US9133140B2, “Cycloalkylamne derivatives” (Daiichi Sankyo Company, Limited, priority 2008, dated 2015)
